Values after ≈ are worked out from the molar mass of the structure shown.

Three compounds from ChEMBL document CHEMBL1121647, “Synthesis and antiviral properties of (Z)-5-(2-bromovinyl)-2'-deoxyuridine” (1981) can be followed below.

Common to all, as to assay type: functional
In assay [1] the test system is Vesicular stomatitis virus. Put plainly: Minimum inhibitory concentration required to reduce vesicular stomatis virus-induced cytopathogenicity in primary rabbit kidney cell cultures. (In general: Cytopathic effects are the visible damage that an infection or toxin causes in cultured cells.)
The test system of assay [2] is Human alphaherpesvirus 1. Put plainly: Minimum inhibitory concentration required to reduce HSV-1 (McIntyre) strain-induced cytopathogenicity in primary rabbit kidney cell cultures.
Assay [3] has as its system Human alphaherpesvirus 2. Put plainly: Minimum inhibitory concentration required to reduce HSV-2 (196) strain-induced cytopathogenicity in primary rabbit kidney cell cultures.
In assay [4] the test system is Human alphaherpesvirus 2. Put plainly: Antiviral activity expressed as minimum HSV-2 (Lyons) strain-induced cytopathogenicity in primary rabbit kidney cell cultures.
In assay [5] the test system is Human alphaherpesvirus 1. The assay is described as follows: Minimum inhibitory concentration required to reduce HSV-1 (F) strain-induced cytopathogenicity in primary rabbit kidney cell cultures.
Assay [6] deals with Human alphaherpesvirus 1. Put plainly: Minimum inhibitory concentration required to reduce HSV-1 (KOS) strain-induced cytopathogenicity in primary rabbit kidney cell cultures.
The test system of assay [7] is Human alphaherpesvirus 2. The assay is described as follows: Minimum inhibitory concentration required to reduce HSV-2 (G) strain-induced cytopathogenicity in primary rabbit kidney cell cultures.
For assay [8], the system named is Human alphaherpesvirus 2. The assay is described as follows: Minimum inhibitory concentration required to reduce HSV-2 (Lyons) strain-induced cytopathogenicity in primary rabbit kidney cell cultures.

For the compound `O=c1[nH]c(=O)n([C@H]2C[C@H](O)[C@@H](CO)O2)cc1/C=C/Br` [BRIVUDINE], the MIC in assay [1] was over 200 µg/mL; against Human alphaherpesvirus 1 [2], 0.01 µg/mL (≈ 0.03 µM); with Human alphaherpesvirus 2 [3], 0.4 µg/mL (≈ 1.2 µM); against Human alphaherpesvirus 2 [4], 0.4 µg/mL (≈ 1.2 µM); with Human alphaherpesvirus 1 [5], 0.02 µg/mL (≈ 0.06 µM); against Human alphaherpesvirus 1 [6] it was 0.02 µg/mL (≈ 0.06 µM). This compound also registered an MIC in the assay with Human alphaherpesvirus 2 [7] of 0.7 µg/mL (≈ 2.1 µM).
As for `O=c1[nH]c(=O)n([C@H]2C[C@H](O)[C@@H](CO)O2)cc1/C=C\Br`, the MIC in assay [1] was over 200 µg/mL; with Human alphaherpesvirus 1 [2], 1 µg/mL (≈ 3 µM); with Human alphaherpesvirus 2 [3], 4 µg/mL (≈ 12 µM); against Human alphaherpesvirus 1 [5], 2 µg/mL (≈ 6 µM); in the assay on Human alphaherpesvirus 2 [8] it was 4 µg/mL (≈ 12 µM); against Human alphaherpesvirus 1 [6], 4 µg/mL (≈ 12 µM). Moreover, the MIC against Human alphaherpesvirus 2 [7] amounted to 2 µg/mL (≈ 6 µM).
Regarding `O=c1[nH]c(=O)n([C@H]2C[C@H](O)[C@@H](CO)O2)cc1I` [IDOXURIDINE], the MIC is over 200 µg/mL in assay [1]; 0.2 µg/mL (≈ 0.565 µM) against Human alphaherpesvirus 1 [2]; 0.4 µg/mL (≈ 1.13 µM) against Human alphaherpesvirus 2 [3]; 0.2 µg/mL (≈ 0.565 µM) in the assay on Human alphaherpesvirus 2 [4]; 0.2 µg/mL (≈ 0.565 µM) against Human alphaherpesvirus 1 [5]; 0.2 µg/mL (≈ 0.565 µM) in the assay with Human alphaherpesvirus 1 [6]. Moreover, in the assay on Human alphaherpesvirus 2 [7], the MIC came to 0.4 µg/mL (≈ 1.13 µM).
